Experimental data: patent publication US8772005B2, “Laccases, compositions and methods of use” (Danisco US Inc., priority 2006, dated 2014)

Test system: Thielavia sp. laccase
Experiment: Bleaching of solubilized indigo by laccase/mediator combinations, 96-well microtitre plate, absorbance at 600 nm
Format: biochemical
Protocol: An assay for the bleaching of the solubilized indigo substrate by laccase/mediator combinations was performed in a 96-well microtitre plate as follows
A saturated solution of indigo in N-methylpyrrolidone (NMP) was prepared by stirring indigo (30 mg) in NMP (10 ml) at room temperature for 5 hours. The NMP solution was diluted 10-fold into an aqueous buffer solution resulting in a blue solution. For example, dilution into 50 mM sodium acetate buffer at pH 5, or 50 mM sodium phosphate buffer at pH 7. Solutions were shaken well immediately before use.
The assay for the bleaching of the solubilized indigo substrate was performed in a 96-well microtitre plate whereby each well received the soluble indigo solution in 50 mM sodium acetate buffer at pH 5 (180 uL), laccase (10 ppm enzyme) and mediator solution (from a 20 mM stock solution in methanol). The total volume of each well was adjusted to 200 uL with deionzed water. A control containing laccase only was run in duplicate. The plate was sealed and incubated at 50° C. for 2 hours at 800 rpm on a heated agitator (Thermomixer, Eppendorf). Following this period, the plates were unsealed and a solution of ascorbic acid (20 uL of a 10% aqueous solution) added to each well in order to reduce the oxidized forms of the mediators. The extent of indigo bleaching was then assessed by determining the absorbance for each well at 600 nm using a microtitre plate reader. The lower the absorbance reading, the greater the extent of indigo bleaching.
Laccases derived from Myceliophtora (Denilite® II, Novozymes, Bagsvaerd, Denmark), Thielavia (Ecostone LCC10, AB enzymes, Darmstadt, Germany) and Cerrena sp. were assessed for their ability to bleach solubilized indigo in conjunction with low molecular weight mediators at two pH values.

CCn1c(=NN=c2sc3cc(S(=O)(=O)O)ccc3n2CC)sc2cc(S(=O)(=O)O)ccc21 [ABTS] was tested, and the “effectiveness of mediator for indigo bleaching (in words)” value (from here on “effectiveness of mediator”) (mediator concentration 50 uM) was “most effective mediator” and the “effectiveness of mediator” value (mediator concentration 500 uM) was “most effective mediator”.
In the case of COc1cc(C(=O)O)cc(OC)c1O [Syringic acid, syringic acid], the “effectiveness of mediator” value (mediator concentration 50 uM) is reported as “bleached soluble indigo no more effectively than the control condition”.
